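Briefly, cells in 96-well plates were exposed to five compound concentrations for 48 h, and endpoints were estimated by linear interpolation. GI50 is the concentration that inhibits growth by half.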 The source made the active and inactive calls. Cut-off read from the data, not from the text of the source: active = GI50 up to about 1.1 µM and inactive = higher.
Columns and labels:
Test in all cases: inhibition of tumour cell growth, NCI panel, 48 h
CAKI-1 = system: CAKI-1
COLO 205 = system: COLO 205
HCC 2998 = system: HCC 2998
HCT-116 = system: HCT-116
IGROV-1 = system: IGROV-1
K562 = system: K562
OVCAR-4 = system: OVCAR-4
OVCAR-5 = system: OVCAR-5
OVCAR-8 = system: OVCAR-8
RXF 393 = system: RXF 393
SF-295 = system: SF-295
SK-MEL-2 = system: SK-MEL-2
SN12C = system: SN12C
SW-620 = system: SW-620
UACC-62 = system: UACC-62
UO-31 = system: UO-31
A549 = system: A549
NCI-H522 = system: NCI-H522
SF-268 = system: SF-268
SF-539 = system: SF-539

| SMILES | GI50 (CAKI-1) | GI50 (COLO 205) | GI50 (HCC 2998) | GI50 (HCT-116) | GI50 (IGROV-1) | GI50 (K562) | GI50 (OVCAR-4) | GI50 (OVCAR-5) | GI50 (OVCAR-8) | GI50 (RXF 393) | GI50 (SF-295) | GI50 (SK-MEL-2) | GI50 (SN12C) | GI50 (SW-620) | GI50 (UACC-62) | GI50 (UO-31) | GI50 (A549) | GI50 (NCI-H522) | GI50 (SF-268) | GI50 (SF-539) |
| --- | --- | --- | --- | --- | --- | --- | --- | --- | --- | --- | --- | --- | --- | --- | --- | --- | --- | --- | --- | --- |
| O=c1ccn(COC(COCc2ccccc2)COCc2ccccc2)c(=O)[nH]1 | > 100 µM (inactive) | > 100 µM (inactive) | > 100 µM (inactive) | > 100 µM (inactive) | > 100 µM (inactive) | > 100 µM (inactive) | > 100 µM (inactive) | > 100 µM (inactive) | > 100 µM (inactive) | > 100 µM (inactive) | > 100 µM (inactive) | > 100 µM (inactive) | > 100 µM (inactive) | > 100 µM (inactive) | 86.9 µM (inactive) | 51.4 µM (inactive) |  |  |  |  |
| O=C(/C=N/c1ccccc1S)c1ccco1 | 19.6 µM (inactive) | 17.2 µM (inactive) |  | 3.15 µM (inactive) | 9.33 µM (inactive) | 18.2 µM (inactive) | 13.4 µM (inactive) |  | 11.5 µM (inactive) | 15.4 µM (inactive) | 5.08 µM (inactive) | 16.4 µM (inactive) | 8.09 µM (inactive) | 14.7 µM (inactive) | 15.5 µM (inactive) | 1.86 µM (inactive) | 5.11 µM (inactive) | 15.5 µM (inactive) | 18.7 µM (inactive) | 14.1 µM (inactive) |
| COc1cc(/C=C/C(=O)Oc2ccc(NC(C)=O)cc2)ccc1C(=O)O/C=C/c1ccccc1 |  | > 100 µM (inactive) | > 100 µM (inactive) | > 100 µM (inactive) | > 100 µM (inactive) | > 31.6 µM (inactive) | > 100 µM (inactive) | > 100 µM (inactive) | > 100 µM (inactive) | > 100 µM (inactive) | > 100 µM (inactive) | > 100 µM (inactive) | > 100 µM (inactive) | > 100 µM (inactive) | > 100 µM (inactive) | 76.4 µM (inactive) | > 100 µM (inactive) | > 100 µM (inactive) | > 100 µM (inactive) | > 100 µM (inactive) |
| CCOC(=O)NC(Nc1ncccn1)(C(=O)OCC)C(F)(F)F (centres undefined) | > 100 µM (inactive) | > 100 µM (inactive) | > 100 µM (inactive) | > 100 µM (inactive) | > 100 µM (inactive) | > 100 µM (inactive) | > 100 µM (inactive) | > 100 µM (inactive) | > 100 µM (inactive) | > 100 µM (inactive) | > 100 µM (inactive) | > 100 µM (inactive) | > 100 µM (inactive) | > 100 µM (inactive) | 63.4 µM (inactive) | > 100 µM (inactive) | > 100 µM (inactive) | > 100 µM (inactive) | > 100 µM (inactive) | > 100 µM (inactive) |
| O=C=C=P(c1ccccc1)(c1ccccc1)c1ccccc1 | 59.4 µM (inactive) | 23.7 µM (inactive) | 61.5 µM (inactive) | 34.4 µM (inactive) | 41.9 µM (inactive) | 27 µM (inactive) | 61.2 µM (inactive) | 28.5 µM (inactive) | 72.6 µM (inactive) | 92.5 µM (inactive) | > 100 µM (inactive) | 49.5 µM (inactive) | > 100 µM (inactive) | > 100 µM (inactive) |  | > 100 µM (inactive) | 40.6 µM (inactive) |  | 69.2 µM (inactive) | > 100 µM (inactive) |
| O=c1[nH]c(-c2ccc(Cl)cc2)cc2ccsc12 | 2.52 µM (inactive) | 9.82 µM (inactive) | 2.31 µM (inactive) | 3.3 µM (inactive) | 3.49 µM (inactive) | 5.16 µM (inactive) | 23.3 µM (inactive) | 6.34 µM (inactive) | 8.41 µM (inactive) | 12.2 µM (inactive) | 3.42 µM (inactive) | 3.21 µM (inactive) | 5.5 µM (inactive) | 4.69 µM (inactive) | 8.22 µM (inactive) | 5.94 µM (inactive) | 3.5 µM (inactive) | 3.31 µM (inactive) | 9.23 µM (inactive) |  |
| COc1ccc(C[C@H](N)C(=O)N2C[C@H](CO)C[C@H](n3ccc(=O)[nH]c3=O)C2)cc1 | > 100 µM (inactive) | > 100 µM (inactive) | > 100 µM (inactive) | > 100 µM (inactive) | > 100 µM (inactive) | > 100 µM (inactive) | > 100 µM (inactive) | > 100 µM (inactive) | > 100 µM (inactive) | > 100 µM (inactive) |  | > 100 µM (inactive) | > 100 µM (inactive) | > 100 µM (inactive) | > 100 µM (inactive) | > 100 µM (inactive) | > 100 µM (inactive) | > 100 µM (inactive) | > 100 µM (inactive) | > 100 µM (inactive) |
| O=C1c2ccccc2C(=O)N1CC(O)COc1cccc2ccccc12 (centres undefined) | 16.2 µM (inactive) | > 100 µM (inactive) | > 100 µM (inactive) | > 100 µM (inactive) | > 100 µM (inactive) | > 100 µM (inactive) |  | > 100 µM (inactive) | > 100 µM (inactive) |  | 98.2 µM (inactive) |  |  | > 100 µM (inactive) | > 100 µM (inactive) | > 100 µM (inactive) | > 100 µM (inactive) | > 100 µM (inactive) | 85.3 µM (inactive) |  |
| CC(=O)OC1CCC2(C)C(CCC3C2CCC2(C)C(c4ccc(=O)oc4)C(OC(C)=O)CC32O)C1 (centres undefined) | 0.0151 µM (active) | 0.0288 µM (active) | 0.0269 µM (active) | 0.0157 µM (active) | 0.0173 µM (active) | 0.0161 µM (active) | 0.0125 µM (active) | 0.0397 µM (active) | 0.0171 µM (active) | 0.0125 µM (active) | 0.016 µM (active) | 0.0258 µM (active) | 0.0162 µM (active) | 0.0148 µM (active) | 0.0169 µM (active) | 0.0156 µM (active) | 0.0135 µM (active) | 0.016 µM (active) | 0.0144 µM (active) | 0.0125 µM (active) |

— ChEMBL document CHEMBL1201862, “PubChem BioAssay data set” (2004)
